Test results taken from patent US20120208781A1, “AMINOGLYCOSIDE DOSING REGIMENS” (Achaogen, Inc., priority 2009, published 2012).
Converted amounts (≈) assume the structure as drawn. Where two headings read alike, the source gives them in different places. Blank lines part the entries; values can stand above or below the compound they belong to.

Legend:
rat kidney [1] = test: Rat nephrotoxicity model: kidney histopathology (H&E); assay type: in vivo, Sprague-Dawley rats; details: rats, 14 d once-daily
Procedure: This rat nephrotoxicity study design used 14 days of once-daily dosing of aminoglycosides in adult Sprague-Dawley rats. Rats were allowed full access to food and water, and aminoglycosides were dosed subcutaneously at 1 mL/kg dosing volume, formulated in water. Nephrotoxicity was assessed by monitoring changes in serum markers of glomerular filtration rate (GFR), namely blood urea nitrogen (BUN) and serum creatinine. Microscopic examination of kidney slices after fixation and hematoxylin and eosin (H&E) staining was also utilized, scoring for tubular dilation, cellular casts, interstitial inflammation, and regenerative changes to the tubules.

A. baumannii (AB) = test: MIC, broth microdilution, Brooklyn hospital isolates: A. baumannii; assay type: cell-based; details: AB (n = 38)
Procedure: (§1) In another study, the activity of Compound 1 against a collection of contemporary Gram-negative bacteria was determined. Unique patient isolates of P. aeruginosa (PA), A. baumannii (AB), K. pneumoniae (KP), E. coli (EC), and Enterobacter spp. (EB) from prior surveys at 16 Brooklyn, N.Y. hospitals were selected based on resistance patterns. The majority of isolates were fingerprinted by automated ribotyping. MICs were performed by broth microdilution. PCR was used to identify aminoglycoside-modifying enzymes (AMEs) in AB and KP and the KPC gene in Enterobacteriaceae (EN). The expression of the efflux genes mexA, C, E and X in PA, and adeB in AB was assessed by real-time RT-PCR.

hearing function = details: guinea pig, in vivo
Procedure: The ototoxicity of aminoglycosides was investigated in 28-day studies in guinea pigs (executed at MPI Research Inc., Mattawan, Mich.). […] Animals assigned to the study had body weights within ±20% of the mean body weight. The vehicle and positive control articles were administered daily for 14 days during the study via bolus subcutaneous injection in the scapular region on the back of each animal. The control group received the vehicle in the same manner as the treated groups. Individual doses were based on the most recent body weights. […] The dose levels for these studies were selected based upon published accounts of aminoglycoside ototoxicity in the guinea pig using similar dosing regimes (e.g., Brummett, A. R. et al., J. Antimicrob Chemother, 1978 May; 4 Suppl A:73-83; Kitasato, I. et al., Chemotherapy, 1990; 36(2):155-68). Doses were chosen to maximize exposure while avoiding significant nephrotoxicity, which would have confounded the analysis given that aminoglycosides are renally cleared.
Clinical observations were conducted predose (Day 1), immediately following the completion of each vehicle or positive control article administration on dosing days, and daily thereafter. Body weights were measured and recorded predose (Day 1) and daily thereafter. Physical examinations were conducted pretest and on Day 28.
Bilateral in-vivo electrophysiology (auditory brainstem response) examinations were conducted pretest and prior to the terminal necropsy. Hearing function changes were measured by comparing auditory brainstem response (ABR) values at the end of the study period versus pre-dosing values of each individual animal. […] Additional ketamine and xylazine were administered as necessary. […] Following ABR evaluations, yohimbine (1 mg/kg) was administered via intraperitoneal (IP) injection as a reversal agent. At study termination (Day 29), necropsy examinations were performed, and designated tissues were collected, examined and rated, and preserved for processing and histopathological evaluation, as described below.

cochlear hair cells = test: Cytocochleogram analysis in 28-day guinea pig ototoxicity model; assay type: in vivo, guinea pigs; details: guinea pigs
Procedure: Following euthanasia and whole body intravascular perfusion with 4% paraformaldehyde, the temporal bones of the left and right ears were removed. Gross middle ear assessments were performed using a dissecting microscope. […] Following gross middle ear assessment, the cochleas of the left ear were fixed by intrascalar perfusion with 4% paraformaldehyde. Cochlea tissues of both ears were placed in 4% paraformaldehyde for approximately 1 hour. Tissues were then transferred to 0.5% paraformaldehyde, stored refrigerated, and shipped on gel packs to the Kresge Hearing Research Institute, Ann Arbor, Mich., for further processing and cytocochleogram analysis.
These guinea pig ototoxicity studies also included microscopic analysis of surgically dissected cochleas from each animal to assess hair cell damage (cytocochleograms). The underlying cause of aminoglycoside related hearing loss is damage to the hair cells of the auditory system after significant accumulation of aminoglycosides in the inner ear. In the cochlea, drug-induced hair cell loss typically progresses from the basal to the apical turns of the cochlea. Perception of high-frequency sounds, a function of the basal hair cells, is lost first; perception of low-frequency sounds, a function of the more apical hair cells, is the last to be lost (Selimoglu, E., Curr Pharm Des. 2007; 13(1):119-26). For obvious reasons, it is impractical to obtain cytocochleograms from each animal prior to dosing, and some hair cell loss is usually observed in control (vehicle dosed) animals in these guinea pig studies. This variability makes it difficult to determine whether hair cell loss observed post-treatment is due to the drug treatment, especially mild hair cell loss, […]

K. pneumoniae (KP) = test: MIC, broth microdilution, Brooklyn hospital isolates: K. pneumoniae; assay type: cell-based; details: KP (n = 71)
Procedure: as §1

P. aeruginosa (PA) = test: MIC, broth microdilution, Brooklyn hospital isolates: P. aeruginosa; assay type: cell-based; details: PA (n = 33)
Procedure: as §1

rat kidney [2] = test: Rat nephrotoxicity model: serum markers of GFR (BUN, serum creatinine); assay type: in vivo, Sprague-Dawley rats; details: dose-response for BUN elevation
Enterobacter spp. (EB) = test: MIC, broth microdilution, Brooklyn hospital isolates: Enterobacter spp.; assay type: cell-based; details: EB (n = 30)
Procedure: as §1

E. coli (EC) = test: MIC, broth microdilution, Brooklyn hospital isolates: E. coli; assay type: cell-based; details: EC (n = 32)
Procedure: as §1

[3] = tested on: Gram-negative and Gram-positive clinical isolates; test: MIC, CLSI broth microdilution, 235 worldwide isolates (all); assay type: cell-based; details: 235 isolates
Description: In the first study, a total of 235 isolates were collected from medical centers worldwide and tested for susceptibility to Compound 1 and comparator agents by CLSI broth microdilution methods. […] Non-ENT GN pathogens included WT P. aeruginosa (PSA) and Acinetobacter spp. (ACB), and carbapenem (CARB)-R strains, including those with MBL and OXA enzymes, SA and coagulase-negative staphylococci (CoNS) included oxacillin-susceptible (MSSA/MS-CoNS) and —R (MRSA/MR-CoNS) strains.
(§2) Minimum inhibitory concentrations (MIC) were determined by reference Clinical and Laboratory Standards Institute (CLSI) broth microdilution methods per M7-A7 [2006]. Briefly, serial two-fold dilutions of Compound 1 and comparator AGs (together, “the test compounds”) were prepared at 2× concentration in appropriate diluent. The dilutions were mixed in 96-well assay plates with bacterial inoculum. Bacteria were suspended in sterile saline and added to each assay plate to obtain a final concentration of 5.5×10^5 CFU/mL. The plates were incubated at 35° C. for 20 hours in ambient air. […] After incubation, assay plates were read using a microtiter plate reader at 600 nm.

E. coli = test: MIC, further Brooklyn patient isolates: E. coli; assay type: cell-based; set-up: unit not given beside the values; details: E. coli (n = 3071)
Procedure: as §2
(§3) Further studies analyzed a greater number of unique patient isolates obtained from Brooklyn, N.Y. hospitals (including those species described above). These species included Acinetobacter, E. coli, Enterobacter, Klebsiella, and Pseudomonas.

Enterobacter = test: MIC, further Brooklyn patient isolates: Enterobacter; assay type: cell-based; set-up: unit not given beside the values; details: Enterobacter (n = 206)
Procedure: as §2, §3

Klebsiella = test: MIC, further Brooklyn patient isolates: Klebsiella; assay type: cell-based; set-up: unit not given beside the values; details: Klebsiella (n = 1151)
Procedure: as §2, §3

SMILES: NCC[C@H](O)C(=O)N[C@@H]1C[C@H](N)[C@@H](O[C@H]2O[C@H](CN)[C@@H](O)[C@H](O)[C@H]2O)[C@H](O)[C@H]1O[C@H]1O[C@H](CO)[C@@H](O)[C@H](N)[C@H]1O [amikacin]
Histopathology score (0 to 5 Scale): Casts (rat kidney [1]; 10 mg/kg): 0 +/− 0 | Histopathology score (0 to 5 Scale): Dilation (rat kidney [1]; 10 mg/kg): 0.2 +/− 0.4 | Histopathology score (0 to 5 Scale): Inflammation (rat kidney [1]; 10 mg/kg): 0.4 +/− 0.5 | Histopathology score (0 to 5 Scale): Regeneration (rat kidney [1]; 10 mg/kg): 0.2 +/− 0.4 | Histopathology score (0 to 5 Scale): Casts (rat kidney [1]; 30 mg/kg): 0 +/− 0 | Histopathology score (0 to 5 Scale): Dilation (rat kidney [1]; 30 mg/kg): 0 +/− 0 | Histopathology score (0 to 5 Scale): Inflammation (rat kidney [1]; 30 mg/kg): 0.4 +/− 0.5 | Histopathology score (0 to 5 Scale): Regeneration (rat kidney [1]; 30 mg/kg): 0.2 +/− 0.4 | Histopathology score (0 to 5 Scale): Casts (rat kidney [1]; 100 mg/kg): 0 +/− 0 | Histopathology score (0 to 5 Scale): Dilation (rat kidney [1]; 100 mg/kg): 0.2 +/− 0.4 | Histopathology score (0 to 5 Scale): Inflammation (rat kidney [1]; 100 mg/kg): 0.6 +/− 0.5 | Histopathology score (0 to 5 Scale): Regeneration (rat kidney [1]; 100 mg/kg): 0.6 +/− 0.5 | Histopathology score (0 to 5 Scale): Casts (rat kidney [1]; 300 mg/kg): 0 +/− 0 | Histopathology score (0 to 5 Scale): Dilation (rat kidney [1]; 300 mg/kg): 1.2 +/− 0.8 | Histopathology score (0 to 5 Scale): Inflammation (rat kidney [1]; 300 mg/kg): 1.2 +/− 0.4 | Histopathology score (0 to 5 Scale): Regeneration (rat kidney [1]; 300 mg/kg): 1.4 +/− 0.5 | Susceptible (A. baumannii (AB)): 82% | MIC50 (A. baumannii (AB); Acinetobacter baumannii): 8 µg/mL (≈ 13.7 µM) | MIC90 (A. baumannii (AB); Acinetobacter baumannii): 64 µg/mL (≈ 109 µM) | clinical observations, body weights, physical examinations, macroscopic observations (hearing function): no vehicle or positive control article-related changes in any dose group | number of animals with hearing loss (hearing function; male, Crl:HA (Albino Hartley), 75 mg/kg, 14 days): 1 of 6 | number of animals with hearing loss (hearing function; male, Crl:HA (Albino Hartley), 150 mg/kg, 14 days): 2 of 6 | ABR threshold shift (hearing function; male, Crl:HA (Albino Hartley), 300 mg/kg/day, 14 days): > 15 dB | hearing loss (ABR threshold changes) (hearing function; male, Crl:HA (Albino Hartley), sc, 300 mg/kg, 14 days): hearing losses from moderate at 4 kHz, to severe at 10 kHz, and to profound at 20 kHz | animals with minimal loss of outer hair cells (cochlear hair cells; 75 mg/kg/day): 3/6 | animals with minimal loss of outer hair cells (cochlear hair cells; 150 mg/kg/day): 3/6 | animals with large loss of outer hair cells (cochlear hair cells; 300 mg/kg/day): All animals | animals with some loss of inner hair cells (cochlear hair cells; 300 mg/kg/day): 3/6 | Susceptible (K. pneumoniae (KP)): 58% | MIC50 (K. pneumoniae (KP); Klebsiella pneumoniae): 16 µg/mL (≈ 27.3 µM) | MIC90 (K. pneumoniae (KP); Klebsiella pneumoniae): 64 µg/mL (≈ 109 µM) | Susceptible (P. aeruginosa (PA)): 94% | MIC50 (P. aeruginosa (PA); Pseudomonas aeruginosa): 4 µg/mL (≈ 6.83 µM) | MIC90 (P. aeruginosa (PA); Pseudomonas aeruginosa): 16 µg/mL (≈ 27.3 µM) | apparent relative nephrotoxicity (ranking) (rat kidney [2]): Neomycin≈Gentamicin>Tobramycin>Apramycin≈Paromomycin>Amikacin | Susceptible (Enterobacter spp. (EB)): 93% | MIC50 (Enterobacter spp. (EB); Enterobacter): 4 µg/mL (≈ 6.83 µM) | MIC90 (Enterobacter spp. (EB); Enterobacter): 16 µg/mL (≈ 27.3 µM) | Susceptible (E. coli (EC)): 91% | MIC50 (E. coli (EC); Escherichia coli): 4 µg/mL (≈ 6.83 µM) | MIC90 (E. coli (EC); Escherichia coli): 16 µg/mL (≈ 27.3 µM) | overall sensitivity (S) [3]: 77.0%

MIC50 (E. coli): ≦0.125 | MIC90 (E. coli): ≦0.125 | MIC50 (Enterobacter): ≦0.125 | MIC50 (Klebsiella): ≦0.125
SMILES: C[C@@H](O)[C@H]1C(=O)N2C(C(=O)O)=C(S[C@@H]3CN[C@H](C(=O)N(C)C)C3)[C@H](C)[C@H]12 [MEM, meropenem]
